From patent EP2002838A1, “Use of aryl and hetaryl amide derivatives as modulators of an EP2 receptor” (Bayer Schering Pharma AG, priority 2007, dated 2008)

Key:
[1] = target: T1, EP2-Subtyp des humanen PGE2-Rezeptors (Homo sapiens, UniProt P43116); assay: cAMP antagonism test (cellular, HTRF cAMP detection, PGE2 stimulation); type: cell-based; conditions: cAMP Antagonismustest; in presence of agonist PGE2; read-out: Antagonismus [IC50
T1 construct: host or cells: cells in a culture plate
Source text: Die Bindung von PGE2 an den EP2-Subtyp des humanen PGE2-Rezeptors induziert die Aktivierung membranständiger Adenylatzyklasen und führt zur Bildung von cAMP. In Gegenwart des Phosphodiesteraseinhibitors IBMX wird das durch diese Stimulation akkumulierte und mittels Zell-Lyse freigesetzte cAMP in einem kompetitiven Nachweisverfahren eingesetzt. In diesem Test konkurriert das cAMP im Lysat mit cAMP-XL665 um die Bindung eines Eu-Kryptat markierten Anti-cAMP Antikörpers. Dabei entsteht in Abwesenheit von zellulärem cAMP ein maximales Signal, welches auf der Kopplung dieses Antikörpers an das cAMP-XL665 Molekül beruht. Dadurch entsteht nach Anregung bei 337 nm ein auf FRET (fluorescence resonance energy transfer) basierendes, langanhaltendes Emissionssignal bei 665 nm (und bei […]). Beide Signale werden in einem geeigneten Messgerät zeitlich versetzt, d.h. nach Abklingen der Hintergrundsfluoreszenz gemessen. Jegliche Erhöhung des durch Prostglandin-E2-Gabe bedingten niedrigen FRET-Signals (gemessen als Well-Ratio-Veränderung = Emission665nm/Emission620nm * 10000) zeigt die Wirkung von Antagonisten.
Die in einer Testplatte und 30 % DMSO vorgelegten Substanzlösungen (0.75 µl) werden in 16 µl einer KRSB+IBMX-Stimulationslösung gelöst (1 X Krebs-Ringer Bicarbonate Buffer; Sigma-Aldrich # K-4002; inklusive 750 µM 3-Isobutyl-1-methylxanthine Sigma-Aldrich # I-7018), anschließend werden 15 µl davon in eine medienfreie Zellkulturplatte überführt, die kurz zuvor mit KRSB gewaschen worden war.
Nach einer 30-minütigen Vorinkubation bei Raumtemperatur (RT) werden 5 µl einer 4xPGE2 Lösung (11 nM) zugegeben und in Gegenwart des Agonisten für weitere 60 min bei RT inkubiert (Volumen: - 20 µl), bevor die Reaktion anschließend durch Zugabe von 5 µl Lysispuffer gestoppt und für weitere 20 min bei RT inkubiert wird (Volumen: - 25 µl). Das Zell-Lysat wird anschließend in eine Messplatte überführt und entsprechend den Herstellerangaben (cyclic AMP kit Cisbio International # 62AMPPEC) gemessen.

[2] = target: T1, EP2-Subtyp des humanen PGE2-Rezeptors; assay: cAMP agonism test (cellular, HTRF cAMP detection, without PGE2); type: cell-based
Kumulus-Eizell Komplexe = assay: Cumulus expansion test in vitro; type: cell-based, Mäuse; conditions: competition with PGE2
Source text: In immaturen weiblichen Mäusen (Stamm : CD1 (ICR) von Charles River) wird in einem Alter von 14-18 Tagen die Follikulogenese durch eine einmalige Gabe (intraperitoneal) von 10 1.E. PMSG (Pregnant Mare Serum Gonadotropine; Sigma G-4877, Lot 68H0909) induziert. 47 - 50 Stunden nach der Injektion werden die Ovarien entnommen und die Kumulus-Eizell Komplexe entnommen. Der Kumulus Komplex ist in diesem Stadium noch nicht expandiert. Die Kumulus-Eizell Komplexe werden nun für 20 - 24 Stunden mit Prostaglandin E2 (PGE2) (0,3 µM), Vehikel Kontrolle (Ethanol) oder Testsubstanzen inkubiert. Medium: alpha- MEM Medium mit 0,1 mM IBMX, Pyruvate (0,23 mM) Glutamine (2 mM), Pen/Strep 100 IU/ml Pen. und 100 µg/ml Strep.) und HSA (8 mg/ml)). Danach wird die Kumulus Expansion durch die Einteilung in vier Stadien (nach Vanderhyden et al. Dev Biol. 1990 Aug;140(2):307-317) festgestellt. Tabelle 1: Beispiel für die biologische Wirksamkeit der erfindungsgemäßen Verbindungen (gemessen mittels cAMP Antagonismustest): […]

T1 sequence (P43116 whole entry): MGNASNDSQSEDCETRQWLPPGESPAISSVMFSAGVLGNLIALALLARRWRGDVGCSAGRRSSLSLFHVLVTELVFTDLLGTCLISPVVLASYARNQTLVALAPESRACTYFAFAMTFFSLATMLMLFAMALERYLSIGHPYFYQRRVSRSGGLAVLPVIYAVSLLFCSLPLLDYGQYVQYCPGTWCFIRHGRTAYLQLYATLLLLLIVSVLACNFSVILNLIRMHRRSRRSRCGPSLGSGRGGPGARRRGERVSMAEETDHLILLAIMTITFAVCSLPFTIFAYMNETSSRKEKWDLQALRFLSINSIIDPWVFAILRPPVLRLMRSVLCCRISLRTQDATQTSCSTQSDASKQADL

SMILES	IC50 [1] [µM]	further results
Cc1[nH]c2c(F)ccc(C)c2c1CCNC(=O)c1ccc(-n2cccc2)cc1 [Beispiel 13, N-[2-(7-Fluor-2,4-dimethyl-1H-indol-3-yl)-ethyl]-4-pyrrol-1-yl-benzamid]	0.96	
Cc1[nH]c2c(F)ccc(C)c2c1CCNC(=O)c1cccc(-c2cc[nH]n2)c1 [Beispiel 15, N-[2-(7-Fluor-2,4-dimethyl-1H-indol-3-yl)-ethyl]-3-(1 H-pyrazol-3-yl)-benzamid]	1	Inhibition im zellulären Agonismustest [2]: keine Inhibition
CC(C)Oc1ccc2c(=O)c3cc(C(=O)O)ccc3oc2c1 [AH 6809, reference compound]		Unterdrückung der Kumulus Expansion (Kumulus-Eizell Komplexe; concentration 100 - 200 µM): ca. 30%
Cc1[nH]c2c(F)ccc(C)c2c1CCNC(=O)c1ccc(-c2csnn2)cc1 [Beispiel 21, N-[2-(7-Fluor-2,4-dimethyl-1H-indol-3-yl)-ethyl]-4-[1,2,3]thiadiazol-4-yl-benzamid]		Unterdrückung der Kumulus Expansion (Kumulus-Eizell Komplexe; concentration 10µM): 50%
Cc1[nH]c2c(F)ccc(C)c2c1CCNC(=O)c1cccc(-c2cccnc2)c1 [Beispiel 20, N-[2-(7-Fluor-2,4-dimethyl-1H-indol-3-yl)-ethyl]-3-pyridin-3-yl-benzamid]	1.9	
